Target: Neurotensin receptor type 1 (Homo sapiens, UniProt P30989)
Experiment: Binding of Neurotensin to the NTSR1 Receptor
Source text: However, the potency of GAL 475 at these receptors was lower than 1 micromolar and therefore not considered to be pharmacologically interesting. […] GAL475 was subsequently tested for PAM activity at the human NTS1 (FAST-0330I) and NTS2 (FAST-0331I) receptors, at 100-50,000 nanomolar concentrations.

Neurotensin receptor type 1, sequence (P30989 whole entry): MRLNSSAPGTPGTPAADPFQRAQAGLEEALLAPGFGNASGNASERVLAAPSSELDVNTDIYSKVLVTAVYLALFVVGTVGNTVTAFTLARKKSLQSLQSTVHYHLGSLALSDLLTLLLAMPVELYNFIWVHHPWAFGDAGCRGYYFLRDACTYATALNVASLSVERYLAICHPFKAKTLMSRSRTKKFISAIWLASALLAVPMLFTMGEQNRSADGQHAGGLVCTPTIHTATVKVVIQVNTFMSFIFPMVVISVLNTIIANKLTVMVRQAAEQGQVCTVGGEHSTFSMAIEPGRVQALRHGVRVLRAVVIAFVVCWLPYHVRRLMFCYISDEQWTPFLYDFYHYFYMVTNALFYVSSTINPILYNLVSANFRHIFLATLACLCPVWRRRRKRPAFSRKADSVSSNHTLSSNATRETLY

Structure (SMILES): CCCNc1nc(NC)nc2c1NC(NC)N=C2NCC(C)(C)O (stereo unspecified) [US20250057848, Compound GAL-475]
- EC50: 355 nM
